Data taken from US5393897A, “Isolation and structure of spongistatins 5,7,8 and 9” (Arizona Board of Regents acting on behalf of Arizona State …, priority 1993, dated 1995).
Where two headings read alike, the source gives them in different places.

Assays:
Format in all cases: cell-based
SN12C = assay: NCI cell line panel; settings: Homo sapiens, Renal Cancer; for GI50: read-out: Log10 GI50 (converted)
Text: (§1) Only two hundred years ago, many diseases ravaged humankind. Many of these diseases now have been controlled or eradicated. In the development of the means to treat or control these diseases, work with the appropriate common experimental animals was of critical importance. With the various types of cancers, and with the HIV virus, such work is presently ongoing. The research for the treatment of various types of cancer is coordinated in the United States by the National Cancer Institute (NCI). NCI, as a government entity, has been charged with assisting anti-cancer research. To establish whether a substance has anti-cancer activity, NCI has established a variety of protocols, one of which involves testing the candidate substance against a cell line panel containing 60 human tumor cell lines. This protocol has been verified and is generally accepted throughout the scientific community. This protocol and the established statistical means of evaluating the results obtained therefrom have been fully described in the literature. See Principles & Practice of Oncology PPO Updates, Volume 3, Number 10, October 1989, by Michael R. Boyd, M.D., Ph.D., for an in depth description of the test protocol. The statistical analysis is explained in "Display and Analysis of Patterns of Differential Activity of Drugs Against Human Tumor Cell Lines: Development of Means Graph and COMPARE Algorithm" Journal of the National Cancer Institute Reports Vol. 81, No. 14, Pg. 1088, Jul. 14, 1989, by K. D. Paull et al. Both of these references are incorporated herein by this reference thereto. The effectiveness and validity of the NCI in vitro protocol continues to be verified.

COLO 205 = assay: NCI cell line panel; settings: Homo sapiens; for LC50 (50% lethal concentration): COLO 205, read-out: Log10 LC50 (converted); for IC (TGI): read-out: Log10 TGI (converted)
Text: as §1

K-562 = assay: NCI cell line panel; settings: Homo sapiens, K562; Leukemia; read-out: Log10 GI50 (converted)
Text: as §1

IGROV1 = assay: NCI cell line panel; settings: Homo sapiens, IGROV-1, Ovarian Cancer; for GI50: read-out: Log10 GI50 (converted); for IC (TGI): read-out: Log10 TGI (converted)
Text: as §1

OVCAR-5 = assay: NCI cell line panel; settings: Homo sapiens
Text: as §1

786-0 = assay: NCI cell line panel; settings: Homo sapiens, Renal Cancer; for GI50: read-out: Log10 GI50 (converted); for IC (TGI): read-out: Log10 TGI (converted)
Text: as §1

NCI-H322M = assay: NCI cell line panel; settings: Homo sapiens, Non-Small Cell Lung Cancer; for GI50: read-out: Log10 GI50 (converted)
Text: as §1

RPMI-8226 = assay: NCI cell line panel; settings: Homo sapiens, Leukemia, read-out: Log10 GI50 (converted)
Text: as §1

ACHN = assay: NCI cell line panel; settings: Homo sapiens, Renal Cancer; for GI50: read-out: Log10 GI50 (converted)
Text: as §1

PC-3 = assay: NCI cell line panel; settings: Homo sapiens, Prostate Cancer; for GI50: read-out: Log10 GI50 (converted); for IC (TGI): read-out: Log10 TGI (converted)
Text: as §1

BT-549 = assay: NCI cell line panel; settings: Homo sapiens
Text: as §1

CCRF-CEM = assay: NCI cell line panel; settings: Homo sapiens, Leukemia; for GI50: read-out: Log10 GI50 (converted)
Text: as §1

RXF-393 = assay: NCI cell line panel; settings: Homo sapiens, Renal Cancer; for GI50: read-out: Log10 GI50 (converted)
Text: as §1

OVCAR-8 = assay: NCI cell line panel; settings: Homo sapiens, Ovarian Cancer, read-out: Log10 GI50 (converted)
Text: as §1

NCI-H226 = assay: NCI cell line panel; settings: Homo sapiens, Non-Small Cell Lung Cancer, read-out: Log10 GI50 (converted)
Text: as §1

[1] = system: 60 human tumor cell lines; assay: NCI in vitro primary screen, panel of 60 human tumor cell lines; settings: for Compare Correlation Coefficient: TGI-centered mean graph profiles, spongistatin 1 as seed; for correlation of mean-graph fingerprint with microtubule-interactive antimitotics: pattern-recognition analyses, data not shown; for negative log molar TGI50: various human cancer cell lines
Text: as §1
^a All compounds were tested in quadruplicate at five different con-
entire panel of 60 human tumor cell lines comprising the NCI
^c Correlation coefficients from the Compare pattern-recognition
algorithm were calculated by computer using the TGI-centered
mean graph profiles of differential cellular sensitivities to 1, and
5. The TGI mean graph profile of 1 was used as the benchmark or
"seed" for all of the comparisons.

Melanoma = assay: NCI cell line panel, melanoma lines, value not assignable to a single line; settings: Homo sapiens, 7 values printed for 8 cell lines, in printed order, read-out: Log10 TGI (converted)
Text: as §1, with “The statistical analysis is explained in "Display and Analysis of Patterns of Differential Activity of Drugs Against Human Tumor Cell Lines: Development of Means Graph and COMPARE Algorithm" Journal of the National Cancer Institute Reports Vol. 81, No. 14, Pg. 1088, Jul. 14, 1989, by K. D. Paull et al. Both of these references are incorporated herein by this reference thereto. The effectiveness and validity of the NCI in vitro protocol continues to be verified.” left out

NCI-H460 = assay: NCI cell line panel; settings: Homo sapiens
Text: as §1

MDA-N = assay: NCI cell line panel; settings: Homo sapiens, Breast Cancer, read-out: Log10 GI50 (converted)
Text: as §1

MDA-MB-435 = assay: NCI cell line panel; settings: Homo sapiens, Breast Cancer, read-out: Log10 GI50 (converted)
Text: as §1

NCI-H522 = assay: NCI cell line panel; settings: Homo sapiens, Non-Small Cell Lung Cancer, read-out: Log10 GI50 (converted)
Text: as §1

HCT-116 = assay: NCI cell line panel; settings: Homo sapiens, Colon Cancer, read-out: Log10 GI50 (converted)
Text: as §1

KM12 = assay: NCI cell line panel; settings: Homo sapiens, KM12, read-out: Log10 GI50 (converted)
Text: as §1

UACC-62 = assay: NCI cell line panel; settings: Homo sapiens, UACC-62, read-out: Log10 GI50 (converted)
Text: as §1

SK-MEL-28 = assay: NCI cell line panel; settings: Homo sapiens, SK-MEL-28, read-out: Log10 GI50 (converted)
Text: as §1

SW-620 = assay: NCI cell line panel; settings: Homo sapiens, SW-620, read-out: Log10 GI50 (converted)
Text: as §1

Breast Cancer = assay: NCI cell line panel, breast cancer line, BT-549 or T-47D not assignable; settings: Homo sapiens, last of 7 values for 8 lines, read-out: Log10 GI50 (converted)
Text: as §1, with “The statistical analysis is explained in "Display and Analysis of Patterns of Differential Activity of Drugs Against Human Tumor Cell Lines: Development of Means Graph and COMPARE Algorithm" Journal of the National Cancer Institute Reports Vol. 81, No. 14, Pg. 1088, Jul. 14, 1989, by K. D. Paull et al. Both of these references are incorporated herein by this reference thereto. The effectiveness and validity of the NCI in vitro protocol continues to be verified.” left out

[2] = read-out: Log10 TGI (converted)
[3] = Homo sapiens, NCI 60 cell line panel, read-out: panel mean GI50
[4] = Homo sapiens, panel mean graph midpoint, read-out: MG-MID, Log10 GI50 (converted)
[5] = Homo sapiens, quadruplicate, five concentrations, standard errors averaged less than 15% of means, read-out: Mean Panel GI50

C=C(Cl)/C=C/C(O)CC(=C)CC1OC2C(C)C(OC(=O)CC3CC(O)CC4(CC(C)(O)CC(C=C5COC(C(C)C(=O)CC6CC(OC)CC7(CC(O)CC(/C=C\CCCC8OC(O)(CC(O)C8C)C2O)O7)O6)C5C)O4)O3)C1O (stereo not shown) [spongistatin 5]
GI50 (SN12C): 0.0603 nM
LC50 (50% lethal concentration) (COLO 205): 7.94 nM
GI50 (COLO 205; COLO 205, Colon Cancer, read-out: Log10 GI50 (converted)): 0.0129 nM
IC (TGI) (COLO 205; COLO 205, Colon Cancer): 0.871 nM
GI50 (K-562): 0.1 nM
GI50 (IGROV1): 0.141 nM
IC (TGI) (IGROV1): 95.5 nM
GI50 (OVCAR-5; OVCAR-5, read-out: Log10 GI50 (converted)): 4.07 nM
GI50 (786-0): 0.0251 nM
IC (TGI) (786-0): 1.2 nM
GI50 (NCI-H322M): 0.0891 nM
GI50 (RPMI-8226): 0.0129 nM
GI50 (ACHN): 0.562 nM
GI50 (PC-3): 0.0151 nM
IC (TGI) (PC-3): 100 nM
GI50 (BT-549; BT-549, read-out: Log10 GI50 (converted)): 0.219 nM
GI50 (CCRF-CEM): 0.017 nM
IC (TGI) (CCRF-CEM; [2]): 4.17 nM
GI50 (RXF-393): 0.0417 nM
GI50 (OVCAR-8): 0.257 nM
GI50 (NCI-H226): 0.759 nM
potency and specificity against NCI human cancer cell lines [1]: remarkably potent and specific
LC50 ([1]; Homo sapiens, read-out: MG-MID, Log10 LC50 (converted)): 79.4 nM
GI50 [1, 3]: 0.1 nM
GI50 [1, 4]: 0.0631 nM
IC (TGI) ([1]; Homo sapiens, panel mean graph midpoint, read-out: MG-MID, Log10 TGI (converted)): 13.8 nM
GI50 [1, 5]: 0.123 nM
Compare Correlation Coefficient [1]: 0.92
correlation of mean-graph fingerprint with microtubule-interactive antimitotics [1]: closely correlated
negative log molar TGI50 [1]: approximately ten

C=C/C=C/C(O)CC(=C)CC1OC2C(C)C(OC(=O)CC3CC(O)CC4(CC(C)(O)CC(C=C5COC(C(C)C(=O)CC6CC(OC)CC7(CC(O)CC(/C=C\CCCC8OC(O)(CC(O)C8C)C2O)O7)O6)C5C)O4)O3)C1O (stereo not shown) [spongistatin 7]
IC (TGI) (Melanoma): 46.8 nM
GI50 (SN12C): 2.19 nM
IC (TGI) (SN12C; [2]): 100 nM
GI50 (COLO 205; COLO 205, read-out: Log10 GI50 (converted)): 0.331 nM
LC50 (50% lethal concentration) (COLO 205): 75.9 nM
IC (TGI) (COLO 205; COLO 205, Colon Cancer): 3.8 nM
GI50 (NCI-H460; NCI-H460, read-out: Log10 GI50 (converted)): 2.09 nM
IC (TGI) (NCI-H460; NCI-H460, Non-Small Cell Lung Cancer, read-out: Log10 TGI (converted)): 100 nM
GI50 (K-562): 0.151 nM
GI50 (IGROV1): 0.617 nM
IC (TGI) (IGROV1): 67.6 nM
GI50 (MDA-N): 0.0151 nM
GI50 (OVCAR-5; OVCAR-5, Ovarian Cancer, read-out: Log10 GI50 (converted)): 20.9 nM
GI50 (MDA-MB-435): 0.0191 nM
GI50 (NCI-H522): 0.0282 nM
GI50 (786-0): 2 nM
IC (TGI) (786-0): 100 nM
GI50 (NCI-H322M): 3.24 nM
IC (TGI) (NCI-H322M; [2]): 100 nM
GI50 (RPMI-8226): 0.708 nM
GI50 (ACHN): 10 nM
IC (TGI) (ACHN; [2]): 100 nM
GI50 (PC-3): 0.372 nM
IC (TGI) (PC-3): 52.5 nM
IC (TGI) (BT-549; BT-549, Breast Cancer, read-out: Log10 TGI (converted)): 100 nM
GI50 (HCT-116): 0.288 nM
GI50 (KM12): 0.219 nM
GI50 (UACC-62): 0.309 nM
GI50 (CCRF-CEM): 0.24 nM
GI50 (SK-MEL-28): 1.29 nM
GI50 (RXF-393): 2.69 nM
IC (TGI) (RXF-393; [2]): 100 nM
GI50 (OVCAR-8): 3.98 nM
GI50 (SW-620): 0.389 nM
GI50 (NCI-H226): 2 nM
potency and specificity against NCI human cancer cell lines [1]: remarkably potent and specific
GI50 [1, 3]: 0.1 nM
GI50 [1, 4]: 1.17 nM
GI50 [1, 5]: 1.01 nM
Compare Correlation Coefficient [1]: 0.81
correlation of mean-graph fingerprint with microtubule-interactive antimitotics [1]: closely correlated
negative log molar TGI50 [1]: approximately ten
GI50 (Breast Cancer): 100 nM
